These are literature values, as cited in patent publication US20230372315A1, “Liquid-State Pharmaceutical Composition Exhibiting Excellent Preservative Effectiveness” (ISHIHARA SANGYO KAISHA, LTD., priority 2020, published 2023).

For series [1] the following is noted: water having pH5 or less.
For series [2] the following is noted: beyond pH8.

`CCS(=O)(=O)Nc1ncc(C(F)(F)F)cc1NC(=O)C1CCCCC1` [N-(2-ethylsulfonylamino-5-trifluoromethyl-3-pyridyl)cyclohexanecarboxamide]: the solubility in water entry in series [1] is reported as “virtually not dissolved”.

Regarding `OCc1ccccc1` [Benzyl alcohol], the antibacterial activity result in series [2] was “virtually no antibacterial activity”.
